Test results taken from US7868023B2, “Thiophene sulfoximines, compositions thereof, and methods of treating complement-mediated diseases and conditions” (Janssen Pharmaceutica NV, priority 2005, dated 2011).

Key:
human MASP-2 = molecular target: T1, human MASP-2 (Homo sapiens, UniProt O00187); assay: In vitro inhibition of MASP-2 (Ki determination, Z-Gly-Arg-S-Bzl hydrolysis, DTNB readout); format: biochemical; settings: substrate Z-Gly-Arg-S-Bzl 45 μM, 37° C., pH 7.5; Ki app corrected for true Ki
T1 construct: His-tag; made in house; host or cells: Baculovirus expression system in insect cells
T1 sequence (O00187 300-686): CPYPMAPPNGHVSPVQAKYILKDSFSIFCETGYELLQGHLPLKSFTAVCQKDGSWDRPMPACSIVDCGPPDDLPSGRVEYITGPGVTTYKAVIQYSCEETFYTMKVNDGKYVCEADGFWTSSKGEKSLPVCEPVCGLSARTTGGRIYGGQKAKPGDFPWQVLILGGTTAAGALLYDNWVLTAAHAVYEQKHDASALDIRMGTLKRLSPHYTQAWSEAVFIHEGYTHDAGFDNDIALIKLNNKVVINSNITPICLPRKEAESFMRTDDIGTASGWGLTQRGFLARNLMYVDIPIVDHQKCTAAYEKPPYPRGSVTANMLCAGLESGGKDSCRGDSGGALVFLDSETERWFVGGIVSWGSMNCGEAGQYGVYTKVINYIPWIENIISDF
T1 sequence (O00187 300-444): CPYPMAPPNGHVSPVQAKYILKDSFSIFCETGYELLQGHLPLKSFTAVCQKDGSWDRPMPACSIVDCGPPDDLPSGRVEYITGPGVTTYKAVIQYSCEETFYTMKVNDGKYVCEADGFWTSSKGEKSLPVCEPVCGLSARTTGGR
From the text: Reagents: All buffer salts were obtained from Sigma Chemical Company (St. Louis, Mo.), and were of the highest purity available. DTNB was purchased from Pierce (Rockford, Ill.). Z-Gly-Arg-S-Bzl was purchased from Enzyme Systems Products (Livermore, Calif.). Autoactivated 2-chain human MASP-2 (His-tag, Cys300-Phe686) was produced in-house from a Baculovirus expression system in insect cells.
Ki Determinations All assays were based on the ability of the test compound to inhibit the MASP-2-catalyzed hydrolysis of the substrate Z-Gly-Arg-S-Bzl, which was observed via a secondary reaction with 5,5′-dithio-bis(2-nitrobenzoic acid) (DTNB). […]
In a typical Ki determination, into each well of a 96-well plate was pipetted 280 μL of substrate solution followed by 10 μL of test compound solution, and the plate was allowed to thermally equilibrate at 37° C. for 10 minutes. Reactions were initiated by the addition of a 10 μL aliquot of the enzyme, and the absorbance increase at 405 nm was continuously recorded for 15 minutes in a Molecular Devices plate reader. […] The ratio of the velocity (rate of change in absorbance as a function of time) for a sample containing no test compound was divided by the velocity of a sample containing test compound, and was plotted as a function of test compound concentration. The data were fit to a linear regression, and the value of the slope of the line calculated. […]

activated human C1s = molecular target: T2, activated human C1s (Homo sapiens, UniProt P09871); assay: In vitro inhibition of C1s (Ki determination, Z-Gly-Arg-S-Bzl hydrolysis, DTNB readout); format: biochemical; settings: substrate Z-Gly-Arg-S-Bzl 45 μM, 37° C., pH 7.5
T2 construct: purchased Calbiochem (La Jolla, Calif.)
T2 sequence (P09871 438-688 limits assumed): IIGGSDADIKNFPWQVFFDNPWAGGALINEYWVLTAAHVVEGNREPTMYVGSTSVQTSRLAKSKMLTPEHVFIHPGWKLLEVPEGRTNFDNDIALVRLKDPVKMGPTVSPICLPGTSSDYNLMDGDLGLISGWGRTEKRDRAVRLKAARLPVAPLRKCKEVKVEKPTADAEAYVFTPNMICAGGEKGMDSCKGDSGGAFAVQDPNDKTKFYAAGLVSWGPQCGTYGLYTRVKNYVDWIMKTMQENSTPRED
T2 sequence (P09871 16-437 limits assumed): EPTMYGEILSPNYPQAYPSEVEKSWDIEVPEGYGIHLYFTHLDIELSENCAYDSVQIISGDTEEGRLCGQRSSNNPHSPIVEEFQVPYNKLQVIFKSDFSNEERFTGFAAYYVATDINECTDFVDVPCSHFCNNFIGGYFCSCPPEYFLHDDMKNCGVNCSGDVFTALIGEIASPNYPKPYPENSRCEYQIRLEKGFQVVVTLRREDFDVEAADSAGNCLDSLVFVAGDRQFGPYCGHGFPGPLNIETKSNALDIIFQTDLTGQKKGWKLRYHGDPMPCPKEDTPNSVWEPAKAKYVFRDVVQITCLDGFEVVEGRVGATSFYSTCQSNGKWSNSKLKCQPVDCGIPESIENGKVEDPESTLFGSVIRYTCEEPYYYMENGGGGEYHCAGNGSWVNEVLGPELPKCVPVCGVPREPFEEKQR
From the text: Reagents: All buffer salts were obtained from Sigma Chemical Company (St. Louis, Mo.), and were of the highest purity available. DTNB was purchased from Pierce (Rockford, Ill.). Z-Gly-Arg-S-Bzl was purchased from Enzyme Systems Products (Livermore, Calif.). Activated human C1s was purchased from Calbiochem (La Jolla, Calif.).
Ki Determinations All assays were based on the ability of the test compound to inhibit the C1s-catalyzed hydrolysis of the substrate Z-Gly-Arg-S-Bzl, which was observed via a secondary reaction with 5,5′-dithio-bis(2-nitrobenzoic acid) (DTNB). […]
In a typical Ki determination, into each well of a 96-well plate was pipetted 280 μL of substrate solution, 10 μL of test compound solution, and the plate allowed to thermally equilibrate at 37° C. for 15 minutes. Reactions were initiated by the addition of a 10 μL aliquot of the enzyme, and the absorbance increase at 405 nm was continuously recorded for 15 minutes in a Molecular Devices plate reader. […] The ratio of the velocity (rate of change in absorbance as a function of time) for a sample containing no test compound was divided by the velocity of a sample containing test compound, and was plotted as a function of test compound concentration. The data were fit to a linear regression, and the value of the slope of the line calculated. The inverse of the slope was the experimentally determined Ki value.

| SMILES | Ki (human MASP-2) | Ki (activated human C1s) |
| --- | --- | --- |
| CSc1sc(C(=N)N)cc1S(=O)(=NS(=O)(=O)c1cccc(NC(N)=O)c1)c1cccc(-c2c(C)cc(NC(=N)N)cc2N)c1 (stereo not drawn) [Example 18, 4-[S-[3-(2-Amino-4-guanidino-6-methyl-phenyl)phenyl]-N-(3-ureidobenzene-sulfonyl)sulfoxamino]-5-methylsulfanyl-thiophene-2-carboxamidine bistrifluoroacetate] | 440 nM | 11 nM |
| CSc1sc(C(=N)N)cc1S(=O)(=NS(=O)(=O)c1cccc([N+](=O)[O-])c1)c1cccc(-c2ccc(NC(=N)N)cc2C)c1 (stereo not drawn) [Example 46, 4-[S-[3-(4-guanidino-6-methyl-phenyl)phenyl]-N-(3-nitrobenzene-sulfonyl)sulfoximino]-5-methylsulfanyl-thiophene-2-carboxamidine bistrifluoroacetate] |  | 10 nM |
